Consider three substances from patent US4087416A, “New heptapeptides and methods for their production” (Parke, Davis & Company, priority 1976, dated 1978).

For the assay, the system named is LRF (luteinizing hormone releasing factor) induced luteinizing hormone (LH) release. Briefly: In vitro LRF antagonist test in rat anterior pituitary cell cultures. It is filed as cell-based. An excerpt:
Heptapeptides of this invention were screened for LRF antagonist activity in vitro using rat anterior pituitary cell cultures as described by Vale et. al. [Endocrinology, 91, 562 (1972)]. The inhibition of LRF (luteinizing hormone releasing factor) induced luteinizing hormone (LH) release into the culture medium is the endpoint in this in vitro bioassay.

[1] abbreviates: Molar Conc. 1×10^-6, first experiment (LRF 5×10^-10).
The mark [2] stands for this setting: Molar Conc. 1×10^-7, first experiment (LRF 5×10^-10).
Setting [3] is: Molar Conc. 1×10^-8, first experiment (LRF 5×10^-10).
The mark [4] stands for this setting: Molar Conc. 3.5×10^-7, first experiment (LRF 5×10^-10).
The mark [5] stands for this setting: Molar Conc. 3.5×10^-8, first experiment (LRF 5×10^-10).
The mark [6] stands for this setting: Molar Conc. 1×10^-7, second experiment (LRF 3.5×10^-10).
Where [7] appears, read: Molar Conc. 2×10^-7, second experiment (LRF 3.5×10^-10).
The mark [8] stands for this setting: Molar Conc. 3.5×10^-7, second experiment (LRF 3.5×10^-10).

Regarding “N^α -t-Butoxycarbonyl-L-prolyl-N^im -benzyl-L-histidyl-N^im -benzyl L-histidyl-O-benzyl-L-seryl-O-benzyl-L-tyrosyl-L-tryptophyl-D-alanine N-ethylamide”, the “% LH Release Inhibition” value turned out to be 101% under setting [1]; 77% under setting [2]; 24% under setting [3]; 99% under setting [4]; 55% under setting [5]. For the same substance, the “LH Value” by setting is: under setting [1], 11.36 ng/mL; under setting [2], 17.83 ng/mL; under setting [3], 31.92 ng/mL; under setting [4], 11.90 ng/mL; under setting [5], 23.65 ng/mL.
“LRF Control: luteinizing hormone releasing factor, also referred to as luteinizing hormone releasing hormone; stimulates the secretion of luteinizing hormone (QHWSYGLRPG; Gonadoliberin-1; UniProt P01148 24-33, looked up) [reference compound]”: the “LH Value” is, setting by setting: (LRF alone, Molar Conc. 3.5×10^-10, second experiment) 40.01 ng/mL; (LRF alone, Molar Conc. 5×10^-10, first experiment) 38.48 ng/mL.
In the case of “N^α -t-Butoxycarbonyl-L-prolyl-N^im -benzyl-L-histidyl-N^im -benzyl-L-histidyl-O-benzyl-L-seryl-O-benzyl-L-tyrosyl-L-tryptophyl-D-alanine methyl ester”, the “% LH Release Inhibition” value under setting [6] is recorded as 65%, the “% LH Release Inhibition” value under setting [7] worked out at 58% and the “% LH Release Inhibition” value under setting [8] was found to be 74%. Further, the “LH Value” is 23.32 ng/mL under setting [6], 24.98 ng/mL under setting [7] and 20.80 ng/mL under setting [8].
